# In article PMC4203769, “The “Genomic Storm” Induced by Bacterial Endotoxin Is Calmed by a Nuclear Transport Modifier That Attenuates Localized and Systemic Inflammation” (PLoS ONE, 2014):
# “And” between values parts separate entries of the source, which are not always exact repeats. Identical values can stand only once. “Also recorded” adds a separate entry of the source. Positions of bridges follow the written chain, without caps; N, C: chain ends. Residues, ends and D or L forms follow the SMILES beside them.
# Columns and labels:
# [1] = Solubility of peptides in water; assay type: physicochemical
# Source text: A fragment-linked peptide strategy to analyze signal-dependent nuclear transport is based on fusing a motif from the nuclear localization sequence (NLS) region of the NF-κB1/p50 subunit with the signal sequence hydrophobic region (SSHR) of human fibroblast growth factor 4 [7], [19]. NLS- and SSHR-containing NTMs (SN50, cSN50 and cSN50.1; see Table 1 for their composition and solubility) were designed to function at the nuclear transport level by binding to importins α during stimulus-initiated signaling and thereby modulate nuclear import of NLS-bearing SRTFs. The SSHR motif allows peptides to cross the plasma membrane of cells in culture or in experimental animals through an ATP- and endosome-independent mechanism. […] The functional utility of NTMs has been reported in numerous preclinical models of inflammation caused by microbial and autoimmune insults, [21]–[26].
# [2] = test system: mouse blood cells and organs; settings: after i.p. injection; receptor- and endocytosis-independent mechanism; cited from earlier work
# Procedure: NTM is rapidly delivered (within 30–60 min after i.p. injection) through a receptor-and endocytosis-independent mechanism to mouse blood cells and organs where it reaches sufficient intracellular concentration to engender localized (lung) and systemic (endotoxic shock) anti-inflammatory effects. Thus, the microvascular compartment of multiple organs that are vulnerable to LPS toxicity (e.g. lungs, liver, and kidneys) can be protected, [22]. Unlike anti-inflammatory glucocorticosteroids which produced discordant results in sepsis clinical trials, [33] and have potential ...
# [3] = test system: primary macrophages challenged with LPS; test: Cell viability of LPS-challenged primary macrophages; assay type: cell-based, mouse (C57BL/6); settings: LPS-challenged BMDMs, 30 µM peptide; data not shown; listed as NTM
SMILES,Solubility in Water [1],time to delivery to mouse blood cells and organs [2] [min],effect on cell viability / cytotoxicity [3]
"CSCC[C@@H]1NC(=O)[C@H](CC(C)C)NC(=O)[C@H](CCCCN)NC(=O)[C@H](CCC(N)=O)NC(=O)[C@H](CCCNC(=N)N)NC(=O)[C@H](CCCCN)NC(=O)[C@H](CCCNC(=N)N)NC(=O)[C@H](CCC(N)=O)NC(=O)[C@H](C(C)C)NC(=O)[C@H](Cc2ccc(O)cc2)NC(=O)[C@@H](NC(=O)[C@@H]2CCCN2C(=O)[C@H](C)NC(=O)[C@H](CC(C)C)NC(=O)[C@H](CC(C)C)NC(=O)[C@H](C)NC(=O)[C@H](CC(C)C)NC(=O)[C@H](CC(C)C)NC(=O)[C@@H](NC(=O)[C@H](C)NC(=O)[C@@H]2CCCN2C(=O)[C@H](CC(C)C)NC(=O)[C@H](CC(C)C)NC(=O)[C@H](C)NC(=O)[C@@H](NC(=O)[C@H](C)NC(=O)[C@H](C)N)C(C)C)C(C)C)CSSC[C@@H](C(=O)O)NC(=O)[C@@H]2CCCN2C1=O [cSN50, reference compound] (H-AAVALLPAVLLALLAPCYVQRKRQKLMPC-OH; disulfide 17-29)",38 mg/mL and 12.1 mM,,
CSCC[C@@H]1NC(=O)[C@H](CC(C)C)NC(=O)[C@H](CCCCN)NC(=O)[C@H](CCC(N)=O)NC(=O)[C@H](CCCNC(=N)N)NC(=O)[C@H](CCCCN)NC(=O)[C@H](CCCNC(=N)N)NC(=O)[C@H](CCC(N)=O)NC(=O)[C@H](C(C)C)NC(=O)[C@@H](NC(=O)[C@@H]2CCCN2C(=O)[C@H](C)NC(=O)[C@H](CC(C)C)NC(=O)[C@H](CC(C)C)NC(=O)[C@H](C)NC(=O)[C@H](CC(C)C)NC(=O)[C@H](CC(C)C)NC(=O)[C@@H](NC(=O)[C@H](C)NC(=O)[C@@H]2CCCN2C(=O)[C@H](CC(C)C)NC(=O)[C@H](CC(C)C)NC(=O)[C@H](C)NC(=O)[C@@H](NC(=O)[C@H](C)NC(=O)[C@H](C)N)C(C)C)C(C)C)CSSC[C@@H](C(=O)O)NC(=O)[C@@H]2CCCN2C1=O [cSN50.1] (H-AAVALLPAVLLALLAPCVQRKRQKLMPC-OH; disulfide 17-28),100 mg/mL and 33.5 mM,30 to 60,without altering expression of housekeeping genes or being cytotoxic; also recorded: not associated with changes in cell viability
